{
  "source": "patent US10328003B2",
  "about": "“Solubilizing agents for active or functional organic compounds” (ISP INVESTMENTS LLC, priority 2015, dated 2019)",
  "key": {"[1]": {"protocol": "(§1) Different samples of the current solubilizing compound cycloalkyl toluate was combined with available sunscreens Escalol S, avobenzone and oxybenzone at 25° C. […] Solubility was checked for cyclohexyl ester in various sunscreen actives such as bemotrizinol, ethylhexyl triazone, avobenzone & benzophenone-3 in comparison to phenethyl benzoate."}, "[2]": {"test": "Comparison of solubilizers combined with sunscreens: clear solution or crystal formation", "type": "physicochemical", "conditions": "25° C., FIG. 6", "protocol": "as §1"}},
  "data": [
    {"compound": "Cc1ccccc1C(=O)OC1CCCCC1", "note": "[Cyclohexyl 2-Toluate]", "values": [
      {"measurement": "Solubility of Escalol S at 25° C.", "setting": "[1]", "value": 37, "unit": "%"}
    ]},
    {"compound": "Cc1cccc(C(=O)OC2CCCCC2)c1", "note": "[Cyclohexyl 3-Toluate]", "values": [
      {"measurement": "Solubility of Escalol S at 25° C.", "setting": "[1]", "value": 35, "unit": "%"}
    ]},
    {"compound": "Cc1ccc(C(=O)OC2CCCCC2)cc1", "note": "[Cyclohexyl 4-Toluate]", "values": [
      {"measurement": "Solubility of Escalol S at 25° C.", "setting": "[1]", "value": 36, "unit": "%"}
    ]},
    {"compound": "Cc1cccc(C(=O)OCC2CCCCC2)c1", "note": "[Cyclohexylmethanol 3-Toluate]", "values": [
      {"measurement": "Solubility of Escalol S at 25° C.", "setting": "[1]", "value": 30, "unit": "%"}
    ]},
    {"compound": "Cc1cccc(C(=O)OC2CCCC2)c1", "note": "[Cyclopentyl 3-Toluate]", "values": [
      {"measurement": "Solubility of Escalol S at 25° C.", "setting": "[1]", "value": 34, "unit": "%"}
    ]},
    {"compound": "O=C(OCCc1ccccc1)c1ccccc1", "note": "[Phenethyl benzoate, 2-phenylethyl benzoate, reference compound]", "values": [
      {"measurement": "Solution appearance when combined with Escalol S, avobenzone and oxybenzone", "setting": "[2]", "value": "crystal formations"},
      {"measurement": "Solubility @ 25° C. Avobenzone", "setting": "[1]", "value": 20},
      {"measurement": "Solubility @ 25° C. Escalol S", "setting": "[1]", "value": 22},
      {"measurement": "Solubility @ 25° C. Oxybenzone", "setting": "[1]", "value": 34}
    ]},
    {"compound": "Cyclohexyl Toluate", "values": [
      {"measurement": "Solubility @ 25° C. Avobenzone", "setting": "[1]", "value": 25},
      {"measurement": "Solubility @ 25° C. Escalol S", "setting": "[1]", "value": 36},
      {"measurement": "Solubility @ 25° C. Oxybenzone", "setting": "[1]", "value": 32},
      {"measurement": "Solubility of Avobenzone at 25° C.", "setting": "[1]", "value": 25, "unit": "%"},
      {"measurement": "Solubility of Escalol S at 25° C.", "setting": "[1]", "value": 36, "unit": "%"},
      {"measurement": "Solubility percentages of sunscreen active in the solubilizer", "setting": "[1]", "value": "22-33%"}
    ]}
  ]
}
